Patent US20250042920A1 (OCEAN UNIVERSITY OF CHINA, priority 2021, published 2025)

Key:
MNK2 = MNK2 (Homo sapiens, UniProt Q9HBH9); test: MNK2 kinase inhibition assay (LANCE Ultra kinase activity assay, PerkinElmer); format: biochemical; conditions: 100 μM ATP; for inhibition at 1 µM: inhibition rate at 1000 nM compound, 60 min, 25° C., read-out: Inhibitory activity(1 μM) MNK2; for IC50: five concentrations 10000-1 nM
Description: (§1) MNK1 and MNK2 kinase inhibition assays were performed using LANCE Ultra kinase activity assay developed by PerkinElmer. […] The test steps are as follows: At 25° C., 1.00 ng MNK1 or 0.05 ng MNK2 was prepared with different concentrations (10000, 1000, 100, 10, 1 nM) of the tested compound to form a total volume of 10 μL reaction mixture (MNK1: 12.5 nM CREB, 450 μM ATP, 2 mM DTT, 1× buffer; MNK2: 12.5 nM CREB, 100 μM ATP, 2 mM DTT, 1×buffer), and incubation for 60 min. The reaction was terminated by adding 5 μL EDTA/Detection buffer and 5 μL Eu-CREB/Detection buffer. The ratio of HTRF signals at 615 nm and 665 nm was detected after 60 min of incubation. The inhibition rate was calculated by measuring the compounds at 1000 nM.
(§2) Then five different concentrations (10000, 1000, 100, 10, 1 nM) of the tested compounds were measured, and the IC50 value was calculated according to the inhibition rate fitting curve.

MNK1 = MNK1 (Homo sapiens, UniProt Q9BUB5); test: MNK1 kinase inhibition assay (LANCE Ultra kinase activity assay, PerkinElmer); format: biochemical; conditions: 450 μM ATP; for inhibition at 1 µM: inhibition rate at 1000 nM compound, 60 min, 25° C., read-out: Inhibitory activity(1 μM) MNK1; for IC50: five concentrations 10000-1 nM
Sequence of MNK1 (Q9BUB5 whole entry): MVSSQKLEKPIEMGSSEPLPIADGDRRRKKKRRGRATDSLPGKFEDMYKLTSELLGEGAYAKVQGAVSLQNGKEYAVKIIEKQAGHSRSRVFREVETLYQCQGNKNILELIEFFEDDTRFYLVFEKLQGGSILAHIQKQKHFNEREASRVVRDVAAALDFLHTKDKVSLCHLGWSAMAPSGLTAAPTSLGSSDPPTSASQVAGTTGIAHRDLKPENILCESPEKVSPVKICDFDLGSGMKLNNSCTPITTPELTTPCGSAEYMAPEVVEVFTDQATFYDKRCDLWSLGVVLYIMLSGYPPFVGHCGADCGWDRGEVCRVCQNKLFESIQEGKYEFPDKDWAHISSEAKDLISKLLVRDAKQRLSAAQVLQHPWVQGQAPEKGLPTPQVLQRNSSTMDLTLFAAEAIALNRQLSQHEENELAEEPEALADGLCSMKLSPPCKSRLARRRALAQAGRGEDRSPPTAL
Description: as §1, §2

Sequence of MNK2 (Q9HBH9 whole entry): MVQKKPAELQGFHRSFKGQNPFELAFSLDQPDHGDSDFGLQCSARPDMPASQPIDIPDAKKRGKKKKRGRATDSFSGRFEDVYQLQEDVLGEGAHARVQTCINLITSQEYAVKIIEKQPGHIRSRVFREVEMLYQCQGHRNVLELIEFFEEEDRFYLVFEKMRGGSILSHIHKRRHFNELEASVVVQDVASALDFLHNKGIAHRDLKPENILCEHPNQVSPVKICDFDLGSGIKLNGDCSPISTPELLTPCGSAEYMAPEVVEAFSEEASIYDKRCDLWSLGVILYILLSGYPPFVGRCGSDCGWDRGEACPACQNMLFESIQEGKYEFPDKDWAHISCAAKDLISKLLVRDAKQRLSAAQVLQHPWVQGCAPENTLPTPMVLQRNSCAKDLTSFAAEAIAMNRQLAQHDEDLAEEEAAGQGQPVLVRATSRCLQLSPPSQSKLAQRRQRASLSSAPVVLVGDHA

| SMILES | inhibition at 1 µM (MNK2) [%] | inhibition at 1 µM (MNK1) [%] | IC50 (MNK2) [nM] | IC50 (MNK1) [nM] |
| --- | --- | --- | --- | --- |
| O=C(c1ccc(-c2cn3c(-c4ccc(F)cc4)csc3n2)cc1)N1CCC(N2CCOCC2)CC1 [Compound 52, 6-(4-(4-morpholinepiperidinebasecarbonyl)phenyl)-3-(4-fluorinatedphenyl) imidazole [2,1-b]thiazole compounds] | 25 to 50 | 25 to 50 | – | – |
| CN1CCN(C(=O)c2ccc(-c3nn4c(-c5ccc(C#N)c(F)c5)cnc4s3)cc2)CC1 [Compound 24, 2-fluoro-4-(2-(4-(4-methylpiperazine-1-carbonyl)phenyl)imidazo[2,1-b][1,3,4]thiadiazol-5-yl)benzonitrile] | > 75 | > 75 | 50 to 200 | 50 to 200 |
| CN1CCN(C(=O)c2ccc(-c3nn4c(-c5ccc(F)nc5)cnc4s3)cc2)CC1 [Compound 28, (4-(5-(6-fluoropyridin-3-yl)imidazo[2,1-b][1,3,4]thiadiazol-2-yl)phenyl)(4-methylpiperazin-1-yl)methanone] | > 75 | 50 to 75 | 200 to 800 | 800 to 1500 |
| CN(C)C1CCN(C(=O)c2ccc(-c3cn4c(-c5ccc(Cl)cc5)csc4n3)cc2)CC1 [Compound 55, (4-(3-(4-chlorophenyl)imidazo[2,1-b]thiazol-6-yl)phenyl)(4-(dimethylamino)piperidin-1-yl)methanone] | 25 to 50 | 25 to 50 | – | – |
| O=C(c1ccc(-c2cn3c(-c4ccc(C(F)(F)F)cc4)csc3n2)cc1)N1CCOCC1 [Compound 46, morpholino(4-(3-(4-(trifluoromethyl)phenyl)imidazo[2,1-b]thiazol-6-yl)phenyl)methanone] | 25 to 50 | 25 to 50 | – | – |
| CN1CCN(C(=O)c2ccc(-c3nn4c(-c5ccc(C#N)cc5)cnc4s3)cc2)CC1 [Compound 17, 4-(2-(4-(4-methylpiperazine-1-carbonyl)phenyl)imidazo[2,1-b][1,3,4]thiadiazol-5-yl)benzonitrile] | > 75 | > 75 | < 50 | < 50 |
| N#Cc1ccc(-c2cnc3sc(-c4ccc(C(=O)NCCO)cc4)nn23)cc1 [Compound 40, 4-(5-(4-cyanophenyl)imidazo[2,1-b][1,3,4]thiadiazol-2-yl)-N-(2-hydroxyethyl)benzamide] | > 75 | > 75 | < 50 | < 50 |
| O=C(c1ccc(-c2cn3c(-c4ccc(F)cc4)csc3n2)cc1)N1CCOCC1 [Compound 44, (4-(3-(4-fluorophenyl)imidazo[2,1-b]thiazol-6-yl)phenyl)(morpholino)methanone] | 25 to 50 | 25 to 50 | – | – |
| CN(C)CCNC(=O)c1ccc(-c2nn3c(-c4ccc(C#N)cc4)cnc3s2)cc1 [Compound 36, 4-(5-(4-cyanophenyl)imidazo[2,1-b][1,3,4]thiadiazol-2-yl)-N-(2-(dimethylamino)ethyl)benzamide] | > 75 | > 75 | < 50 | < 50 |
| CN(C)C1CCN(C(=O)c2ccc(-c3nn4c(-c5ccc(F)cc5)cnc4s3)cc2)CC1 [Compound 13, (4-(dimethylamino)piperidin-1-yl)(4-(5-(4-fluorophenyl)imidazo[2,1-b][1,3,4]thiadiazol-2-yl)phenyl)methanone] | > 75 | > 75 | < 50 | < 50 |
| CN1CCN(C(=O)c2ccc(-c3nn4c(-c5ccc(C(F)(F)F)cc5)cnc4s3)cc2)CC1 [Compound 21, (4-methylpiperazin-1-yl)(4-(5-(4-(trifluoromethyl)phenyl)imidazo[2,1-b][1,3,4]thiadiazol-2-yl)phenyl)methanone] | > 75 | > 75 | < 50 | < 50 |
| CN1CCN(C(=O)c2ccc(-c3nn4c(-c5ccc(C(F)(F)F)c(F)c5)cnc4s3)cc2)CC1 [Compound 23, (4-(5-(3-fluoro-4-(trifluoromethyl)phenyl)imidazo[2,1-b][1,3,4]thiadiazol-2-yl)phenyl)(4-methylpiperazin-1-yl)methanone] | > 75 | > 75 | 200 to 800 | 200 to 800 |
| COC(=O)c1ccc(-c2cnc3sc(-c4ccc(C(=O)N5CCN(C)CC5)cc4)nn23)cc1 [Compound 19, methyl 4-(2-(4-(4-methylpiperazine-1-carbonyl)phenyl)imidazo[2,1-b][1,3,4]thiadiazol-5-yl)benzoate] | > 75 | > 75 | 50 to 200 | 200 to 800 |
| N#Cc1ccc(-c2cnc3sc(-c4ccc(C(=O)OCCCCCO)cc4)nn23)cc1 [Compound 34, 5-hydroxypentyl 4-(5-(4-cyanophenyl)imidazo[2,1-b][1,3, 4]thiadiazol-2-yl)benzoate] | 25 to 50 | 25 to 50 | – | – |
| O=C(c1ccc(-c2nn3c(-c4ccc(F)cc4)cnc3s2)cc1)N1CCOCC1 [Compound 2, (4-(5-(4-fluorophenyl)imidazo[2,1-b][1,3,4]thiadiazol-2-yl)phenyl)(morpholino)methanone] | > 75 | > 75 | < 50 | 200 to 800 |
| N#Cc1ccc(-c2csc3nc(-c4ccc(C(=O)N5CCOCC5)cc4)cn23)cc1 [Compound 43, 4-(6-(4-(morpholine-4-carbonyl)phenyl)imidazo[2,1-b]thiazol-3-yl)benzonitrile] | 25 to 50 | 25 to 50 | – | – |
| CN1CCN(C(=O)c2ccc(-c3nn4c(-c5ccc(F)cc5F)cnc4s3)cc2)CC1 [Compound 26, (4-(5-(2,4-difluorophenyl)imidazo[2,1-b][1,3,4]thiadiazol-2-yl)phenyl)(4-methylpiperazin-1-yl)methanone] | 25 to 50 | 25 to 50 | – | – |
| N#Cc1ccc(-c2cnc3sc(-c4ccc(C(=O)NCCCO)cc4)nn23)cc1 [Compound 39, 4-(5-(4-cyanophenyl)imidazo[2,1-b][1,3,4]thiadiazol-2-yl)-N-(3-hydroxypropyl)benzamide] | > 75 | > 75 | < 50 | < 50 |
| COc1ccc(-c2csc3nc(-c4ccc(C(=O)N5CCOCC5)cc4)cn23)cc1 [Compound 45, (4-(3-(4-methoxyphenyl)imidazo[2,1-b]thiazol-6-yl)phenyl)(morpholino)methanone] | 25 to 50 | 25 to 50 | – | – |
| O=C(c1ccc(-c2cn3c(-c4ccc(Cl)cc4)csc3n2)cc1)N1CCOCC1 [Compound 47, (4-(3-(4-chlorophenyl)imidazo[2,1-b]thiazol-6-yl)phenyl)(morpholino)methanone] | 25 to 50 | 25 to 50 | – | – |
| CC1CCCCN1C(=O)c1ccc(-c2nn3c(-c4ccc(C#N)cc4)cnc3s2)cc1 (stereo not drawn) [Compound 41, 4-(2-(4-(2-methylpiperidine-1-carbonyl)phenyl)imidazo[2,1-b][1,3,4]thiadiazol-5-yl)benzonitrile] | > 75 | > 75 | < 50 | < 50 |
| CN(C)C1CCN(C(=O)c2ccc(-c3nn4c(-c5ccc(O)cc5)cnc4s3)cc2)CC1 [Compound 14, (4-(dimethylamino)piperidin-1-yl)(4-(5-(4-hydroxyphenyl)imidazo[2,1-b][1,3,4]thiadiazol-2-yl)phenyl)methanone] | > 75 | > 75 | < 50 | < 50 |
| O=C(c1ccc(-c2nn3c(-c4ccc(Cl)cc4)cnc3s2)cc1)N1CCOCC1 [Compound 6, (4-(5-(4-chlorophenyl)imidazo[2,1-b][1,3,4]thiadiazol-2-yl)phenyl)(morpholino)methanone] | > 75 | > 75 | 50 to 200 | 50 to 200 |
| N#Cc1ccc(-c2cnc3sc(-c4ccc(C(=O)N5CCCC5)cc4)nn23)cc1 [Compound 30, 4-(2-(4-(pyrrolidine-1-carbonyl)phenyl)imidazo[2,1-b][1,3,4]thiadiazol-5-yl)benzonitrile] | > 75 | > 75 | < 50 | < 50 |
